Measured values reported in ChEMBL document CHEMBL1909046, “DrugMatrix in vitro pharmacology data”.

Legend:
[1] = biological target: T1, Alpha-1A adrenergic receptor (Rattus norvegicus, UniProt P43140); assay: DRUGMATRIX: Alpha-1A adrenergic receptor radioligand binding (ligand: prazosin); assay type: cell membranes, Wistar, Submaxillary gland, Membrane; conditions: Not Active = under 50% inhibition at 10 µM
T1 sequence (P43140 whole entry): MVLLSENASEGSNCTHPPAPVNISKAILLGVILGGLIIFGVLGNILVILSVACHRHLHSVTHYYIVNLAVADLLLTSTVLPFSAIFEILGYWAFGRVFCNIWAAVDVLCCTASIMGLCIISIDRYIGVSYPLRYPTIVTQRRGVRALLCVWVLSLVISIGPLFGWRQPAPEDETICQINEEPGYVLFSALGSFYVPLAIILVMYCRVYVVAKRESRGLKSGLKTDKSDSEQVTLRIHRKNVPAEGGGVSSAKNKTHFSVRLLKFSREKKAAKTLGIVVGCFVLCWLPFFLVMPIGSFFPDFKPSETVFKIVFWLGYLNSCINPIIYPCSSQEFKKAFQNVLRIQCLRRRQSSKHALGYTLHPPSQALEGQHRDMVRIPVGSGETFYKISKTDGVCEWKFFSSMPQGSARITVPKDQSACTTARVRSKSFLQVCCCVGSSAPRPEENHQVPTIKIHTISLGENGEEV

[2] = biological target: D(1A) dopamine receptor (Homo sapiens, UniProt P21728); assay: DRUGMATRIX: Dopamine D1 radioligand binding (ligand: [3H] SCH-23390); assay type: cell membranes, CHO, Membrane; conditions: cho; Not Active = under 50% inhibition at 10 µM
D(1A) dopamine receptor, sequence (P21728 whole entry): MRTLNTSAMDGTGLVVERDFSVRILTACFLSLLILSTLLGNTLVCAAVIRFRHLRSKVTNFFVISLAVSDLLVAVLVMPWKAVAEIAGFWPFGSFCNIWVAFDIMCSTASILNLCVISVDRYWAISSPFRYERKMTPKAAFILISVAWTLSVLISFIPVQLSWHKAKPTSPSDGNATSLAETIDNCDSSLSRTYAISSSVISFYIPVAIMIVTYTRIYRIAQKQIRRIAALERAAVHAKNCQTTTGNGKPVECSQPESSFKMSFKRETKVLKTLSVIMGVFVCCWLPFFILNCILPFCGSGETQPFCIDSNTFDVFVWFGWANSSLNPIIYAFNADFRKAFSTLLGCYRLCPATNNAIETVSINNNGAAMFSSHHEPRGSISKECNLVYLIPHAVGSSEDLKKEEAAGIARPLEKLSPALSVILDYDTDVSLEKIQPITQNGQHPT

[3] = biological target: T2, Nitric oxide synthase, inducible (Mus musculus, UniProt P29477); design: species or system Escherichia coli;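 note: inhibition of iNOS enzyme activity measured with L-arginine as substrate; in other assays of this panel Not Active means under 50% inhibition at 10 µM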
T2 sequence (P29477 whole entry): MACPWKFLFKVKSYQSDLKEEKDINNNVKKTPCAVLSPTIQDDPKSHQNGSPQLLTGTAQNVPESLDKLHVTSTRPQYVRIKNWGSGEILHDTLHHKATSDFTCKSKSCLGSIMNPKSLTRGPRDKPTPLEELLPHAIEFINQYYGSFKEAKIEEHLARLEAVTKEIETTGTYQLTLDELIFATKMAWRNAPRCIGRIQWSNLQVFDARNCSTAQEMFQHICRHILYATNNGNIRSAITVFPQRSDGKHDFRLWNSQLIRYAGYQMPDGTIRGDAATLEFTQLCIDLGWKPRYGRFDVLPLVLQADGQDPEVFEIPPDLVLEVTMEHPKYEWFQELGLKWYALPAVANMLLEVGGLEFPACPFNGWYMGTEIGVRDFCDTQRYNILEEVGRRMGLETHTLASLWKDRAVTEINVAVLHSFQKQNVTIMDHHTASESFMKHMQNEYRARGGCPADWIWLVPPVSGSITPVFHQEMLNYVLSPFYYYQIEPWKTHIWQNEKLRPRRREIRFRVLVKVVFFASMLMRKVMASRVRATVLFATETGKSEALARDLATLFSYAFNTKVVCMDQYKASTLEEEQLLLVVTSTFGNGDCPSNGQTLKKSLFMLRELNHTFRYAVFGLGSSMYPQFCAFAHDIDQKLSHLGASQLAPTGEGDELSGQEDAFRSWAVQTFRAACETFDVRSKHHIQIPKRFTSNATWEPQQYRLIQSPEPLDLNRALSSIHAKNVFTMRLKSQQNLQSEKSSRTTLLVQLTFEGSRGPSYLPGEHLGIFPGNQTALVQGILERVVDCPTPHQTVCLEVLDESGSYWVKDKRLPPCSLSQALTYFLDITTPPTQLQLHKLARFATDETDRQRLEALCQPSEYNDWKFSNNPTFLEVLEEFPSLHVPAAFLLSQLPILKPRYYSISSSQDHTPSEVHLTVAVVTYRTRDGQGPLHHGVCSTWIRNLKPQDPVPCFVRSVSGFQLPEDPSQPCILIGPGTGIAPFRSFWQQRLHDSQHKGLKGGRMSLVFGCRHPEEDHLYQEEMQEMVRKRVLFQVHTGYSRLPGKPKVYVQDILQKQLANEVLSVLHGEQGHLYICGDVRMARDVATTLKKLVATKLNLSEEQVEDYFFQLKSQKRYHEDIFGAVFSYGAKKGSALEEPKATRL

[4] = biological target: T3, Receptor-type tyrosine-protein phosphatase C (Homo sapiens, UniProt P08575); design: species or system Escherichia coli;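 note: inhibition of CD45 enzyme activity measured using DiFMUP as substrate; in other assays of this panel Not Active means under 50% inhibition at 10 µM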
T3 sequence (P08575 whole entry): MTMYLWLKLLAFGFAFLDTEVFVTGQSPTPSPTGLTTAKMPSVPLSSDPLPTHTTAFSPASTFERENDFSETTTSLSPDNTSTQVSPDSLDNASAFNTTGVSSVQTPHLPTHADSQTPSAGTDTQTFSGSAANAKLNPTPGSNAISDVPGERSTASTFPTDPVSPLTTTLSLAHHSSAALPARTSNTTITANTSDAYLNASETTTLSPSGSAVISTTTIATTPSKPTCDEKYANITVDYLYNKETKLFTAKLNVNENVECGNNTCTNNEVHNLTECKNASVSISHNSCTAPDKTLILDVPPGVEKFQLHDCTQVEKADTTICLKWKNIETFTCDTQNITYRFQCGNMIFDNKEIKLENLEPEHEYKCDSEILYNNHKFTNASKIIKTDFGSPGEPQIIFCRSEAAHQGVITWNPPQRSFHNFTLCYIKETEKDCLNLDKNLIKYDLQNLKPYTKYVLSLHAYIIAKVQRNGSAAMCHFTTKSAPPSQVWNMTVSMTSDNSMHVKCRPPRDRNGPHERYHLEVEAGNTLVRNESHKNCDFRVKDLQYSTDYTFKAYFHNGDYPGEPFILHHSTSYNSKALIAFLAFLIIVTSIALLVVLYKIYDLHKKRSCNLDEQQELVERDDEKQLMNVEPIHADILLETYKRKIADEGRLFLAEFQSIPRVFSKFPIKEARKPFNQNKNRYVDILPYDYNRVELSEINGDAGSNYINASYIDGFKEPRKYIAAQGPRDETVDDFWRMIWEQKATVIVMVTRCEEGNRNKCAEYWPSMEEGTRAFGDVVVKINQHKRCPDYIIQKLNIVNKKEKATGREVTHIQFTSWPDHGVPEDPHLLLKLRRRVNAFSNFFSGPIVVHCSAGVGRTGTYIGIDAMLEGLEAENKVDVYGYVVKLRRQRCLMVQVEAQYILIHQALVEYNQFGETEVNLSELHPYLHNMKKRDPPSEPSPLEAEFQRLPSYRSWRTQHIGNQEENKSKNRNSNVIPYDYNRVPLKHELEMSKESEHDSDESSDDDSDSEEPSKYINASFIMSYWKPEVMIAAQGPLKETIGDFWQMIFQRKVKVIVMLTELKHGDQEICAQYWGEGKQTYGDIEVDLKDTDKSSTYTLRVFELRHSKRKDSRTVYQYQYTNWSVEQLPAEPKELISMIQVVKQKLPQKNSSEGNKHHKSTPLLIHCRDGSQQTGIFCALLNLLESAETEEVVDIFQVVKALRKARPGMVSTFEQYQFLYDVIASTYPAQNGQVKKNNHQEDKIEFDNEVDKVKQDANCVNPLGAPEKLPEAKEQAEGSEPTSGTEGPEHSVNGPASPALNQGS

NC[C@H]1CC[C@H](C(=O)O)CC1 [TRANEXAMIC ACID]
Not Active: IC50 [1] | IC50 [2] | IC50 [3] | IC50 [4]

CC1(C)O[C@@H]2C[C@H]3[C@@H]4CCC5=CC(=O)C=C[C@]5(C)[C@@]4(F)[C@@H](O)C[C@]3(C)[C@]2(C(=O)CO)O1 [TRIAMCINOLONE ACETONIDE]
Not Active: IC50 [1] | IC50 [2] | IC50 [3] | IC50 [4]

NS(=O)(=O)c1cc2c(cc1Cl)NC(C(Cl)Cl)NS2(=O)=O (stereo not given) [TRICHLORMETHIAZIDE]
Not Active: IC50 [1] | IC50 [2] | IC50 [3] | IC50 [4]

Cc1c(C)c2c(c(C)c1O)CCC(C)(COc1ccc(CC3SC(=O)NC3=O)cc1)O2 (stereo not given) [TROGLITAZONE]
Not Active: IC50 [1] | IC50 [2] | IC50 [3] | IC50 [4]

N[C@@H]1[C@H]2CN(c3nc4c(cc3F)c(=O)c(C(=O)O)cn4-c3ccc(F)cc3F)C[C@@H]12 [TROVAFLOXACIN]
Not Active: IC50 [1] | IC50 [2] | IC50 [3] | IC50 [4]

N#CC(C#N)=Cc1ccc(O)c(O)c1 [TYRPHOSTIN 23]
Not Active: IC50 [1] | IC50 [2] | IC50 [3] | IC50 [4]

CC[C@]1(O)C[C@H]2CN(CCc3c([nH]c4ccccc34)[C@@](C(=O)OC)(c3cc4c(cc3OC)N(C=O)[C@H]3[C@@](O)(C(=O)OC)[C@H](OC(C)=O)[C@]5(CC)C=CCN6CC[C@]43[C@@H]65)C2)C1 [VINCRISTINE]
Not Active: IC50 [1] | IC50 [2] | IC50 [3] | IC50 [4]

CCCOc1ccccc1-c1nc2nn[nH]c2c(=O)[nH]1 [ZAPRINAST]
Not Active: IC50 [1] | IC50 [2] | IC50 [3] | IC50 [4]

SODIUM NITROPRUSSIDE
Not Active: IC50 [1] | Ki [1] | IC50 [2] | Ki [2] | IC50 [3] | Ki [3] | IC50 [4] | Ki [4]
